US20180155344A1, “TRICYCLIC PIPERIDINE COMPOUNDS” (ACTELION PHARMACEUTICALS LTD, priority 2015, published 2018)
pIC50: −log10 of the molar value.

Biological target: T1, human TPH1 (Homo sapiens, UniProt P17752)
T1 sequence (P17752 1-444): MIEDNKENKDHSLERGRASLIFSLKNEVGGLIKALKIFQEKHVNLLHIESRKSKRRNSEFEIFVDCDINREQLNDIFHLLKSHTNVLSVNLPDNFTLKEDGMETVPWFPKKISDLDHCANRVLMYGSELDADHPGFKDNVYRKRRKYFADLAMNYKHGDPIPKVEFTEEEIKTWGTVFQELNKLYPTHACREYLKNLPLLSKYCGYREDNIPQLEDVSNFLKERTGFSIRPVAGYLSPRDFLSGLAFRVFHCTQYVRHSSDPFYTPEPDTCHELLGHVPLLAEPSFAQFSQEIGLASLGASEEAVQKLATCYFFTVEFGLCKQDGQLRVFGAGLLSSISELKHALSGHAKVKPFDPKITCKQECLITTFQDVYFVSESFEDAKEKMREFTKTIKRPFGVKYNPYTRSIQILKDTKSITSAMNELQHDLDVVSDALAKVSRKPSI
Test: biochemical
Procedure, shortened: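 Inhibition is derived from 5-hydroxy-L-tryptophan fluorescence (540 nm emission, 300 nm excitation) after perchloric acid stop, relative to DMSO vehicle. Recombinant full-length human enzyme (40-80 nM) reacts with 40 μM tryptophan plus 100 μM methyltetrahydropterin, pH 7.6 Tris/DTT/catalase, 15° C, 60 min.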

| SMILES | pIC50 |
| --- | --- |
| O=C(COc1ccc(CN2CCOCC2)cc1Cl)N1CCc2nc3cc(C(F)(F)F)ccn3c2C1c1ncccc1F (centres unmarked) [Example 3.21.2, 2-(2-chloro-4-(morpholinomethyl)phenoxy)-1-(1-(3-fluoropyridin-2-yl)-7-(trifluoromethyl)-3,4-dihydroimidazo[1,2-a:5,4-c′]dipyridin-2(1H)-yl)ethan-1-one] | 6.46 |
| O=C(COc1ccc(N2CCOCC2)cc1Cl)N1CCc2nc3cc(C(F)(F)F)ccn3c2C1c1ncccc1F (centres unmarked) [Example 3.21.3, 2-(2-chloro-4-morpholinophenoxy)-1-(1-(3-fluoropyridin-2-yl)-7-(trifluoromethyl)-3,4-dihydroimidazo[1,2-a:5,4-c′]dipyridin-2(1H)-yl)ethan-1-one] | 7.06 |
| Cc1ccc(C2c3c(nc4cc(C(F)(F)F)ccn34)CCN2C(=O)COc2ccc(CN3CCOCC3)cc2Cl)c(F)c1 (centres unmarked) [Example 3.22.1, 2-(2-chloro-4-(morpholinomethyl)phenoxy)-1-(1-(2-fluoro-4-methylphenyl)-7-(trifluoromethyl)-3,4-dihydroimidazo[1,2-a:5,4-c′]dipyridin-2(1H)-yl)ethan-1-one] | 8.15 |
| Cc1ccc(C2c3c(nc4cc(C(F)(F)F)ccn34)CCN2C(=O)COc2nn(C)c(C(F)(F)F)c2Cl)c(F)c1 (centres unmarked) [Example 3.22.3, 2-((4-chloro-1-methyl-5-(trifluoromethyl)-1H-pyrazol-3-yl)oxy)-1-(1-(2-fluoro-4-methylphenyl)-7-(trifluoromethyl)-3,4-dihydroimidazo[1,2-a:5,4-c′]dipyridin-2(1H)-yl)ethan-1-one] | 7.48 |

Other lines, results leading:

| pIC50 | SMILES |
| --- | --- |
| 6.33 | Cc1cc(Cl)ccc1OCC(=O)N1CCc2nc3cc(C(F)(F)F)ccn3c2C1c1ncccc1F (centres unmarked) [Example 3.21.4, 2-(4-chloro-2-methylphenoxy)-1-(1-(3-fluoropyridin-2-yl)-7-(trifluoromethyl)-3,4-dihydroimidazo[1,2-a:5,4-c′]dipyridin-2(1H)-yl)ethan-1-one] |
| 7.36 | Cc1ccc(C2c3c(nc4cc(C(F)(F)F)ccn34)CCN2C(=O)COc2cccnc2Cl)c(F)c1 (centres unmarked) [Example 3.22.2, 2-((2-chloropyridin-3-yl)oxy)-1-(1-(2-fluoro-4-methylphenyl)-7-(trifluoromethyl)-3,4-dihydroimidazo[1,2-a:5,4-c′]dipyridin-2(1H)-yl)ethan-1-one] |
| 7.77 | CCc1nc(C)ccc1OCC(=O)N1CCc2nc3cc(C(F)(F)F)ccn3c2C1c1ccc(C)cc1F (centres unmarked) [Example 3.22.4, 2-((2-ethyl-6-methylpyridin-3-yl)oxy)-1-(1-(2-fluoro-4-methylphenyl)-7-(trifluoromethyl)-3,4-dihydroimidazo[1,2-a:5,4-c′]dipyridin-2(1H)-yl)ethan-1-one] |
| 7.82 | Cc1ccc(C2c3c(nc4cc(C(F)(F)F)ccn34)CCN2C(=O)COc2ccc(NS(C)(=O)=O)nc2Cl)c(F)c1 (centres unmarked) [Example 3.22.5, N-(6-chloro-5-(2-(1-(2-fluoro-4-methylphenyl)-7-(trifluoromethyl)-3,4-dihydroimidazo[1,2-a:5,4-c′]dipyridin-2(1H)-yl)-2-oxoethoxy)pyridin-2-yl)methanesulfonamide] |
| 7.17 | Cc1ccc(C2c3c(nc4cc(C(F)(F)F)ccn34)CCN2C(=O)COc2ccc3ccccc3c2)cc1 (centres unmarked) [Example 3.23.1, 2-(naphthalen-2-yloxy)-1-(1-(p-tolyl)-7-(trifluoromethyl)-3,4-dihydroimidazo[1,2-a:5,4-c′]dipyridin-2(1H)-yl)ethan-1-one] |
| 7.49 | Cc1ccc(C2c3c(nc4cc(C(F)(F)F)ccn34)CCN2C(=O)COc2ccc(CN3CCOCC3)cc2Cl)cc1 (centres unmarked) [Example 3.23.2, 2-(2-chloro-4-(morpholinomethyl)phenoxy)-1-(1-(p-tolyl)-7-(trifluoromethyl)-3,4-dihydroimidazo[1,2-a:5,4-c′]dipyridin-2(1H)-yl)ethan-1-one] |
| 7.36 | COc1ccc(C2c3c(nc4cc(C(F)(F)F)ccn34)CCN2C(=O)COc2ccc3ccccc3c2)cc1 (centres unmarked) [Example 3.24.1, 1-(1-(4-methoxyphenyl)-7-(trifluoromethyl)-3,4-dihydroimidazo[1,2-a:5,4-c′]dipyridin-2(1H)-yl)-2-(naphthalen-2-yloxy)ethan-1-one] |
